Assay [1] concerns the target NK1 receptor (Homo sapiens, UniProt P25103). The experiment in a line: neurokinin receptor binding assay (NK1). From the text:
(§1) The in vitro and in vivo activity of the compounds of formula I can be determined by various procedures known in the art, such as a test for their ability to inhibit the activity of the NK1 agonist Substance P, an isolated hamster trachea NK2 assay, a test of the effect of NK1 antagonists on Substance P-induced airway microvascular leakage, measurement of NK2 activity in vivo in guinea pigs, measurement of bronchoconstriction due to NKA, and neurokinin receptor binding assay(s). NK3 activity is determined by following a procedure similar to that described in the literature, e.g., Molecular Pharmacol., 48 (1995), p. 711-716.
(§2) % Inhibition of neurokinin agonist activity is the difference between the percent of maximum specific binding (MSB) and 100%. The percent of MSB is defined by the following equation, wherein "dpm" is disintegrations per minute: % MSB =((dpm of unknown) - (dpm of nonspecific binding))/((dpm of total binding) - (dpm of nonspecific binding))X 100 [formula]

Assay [2] addresses T1, NK2 receptor (Homo sapiens, UniProt P21452).
T1 sequence (P21452 1-398): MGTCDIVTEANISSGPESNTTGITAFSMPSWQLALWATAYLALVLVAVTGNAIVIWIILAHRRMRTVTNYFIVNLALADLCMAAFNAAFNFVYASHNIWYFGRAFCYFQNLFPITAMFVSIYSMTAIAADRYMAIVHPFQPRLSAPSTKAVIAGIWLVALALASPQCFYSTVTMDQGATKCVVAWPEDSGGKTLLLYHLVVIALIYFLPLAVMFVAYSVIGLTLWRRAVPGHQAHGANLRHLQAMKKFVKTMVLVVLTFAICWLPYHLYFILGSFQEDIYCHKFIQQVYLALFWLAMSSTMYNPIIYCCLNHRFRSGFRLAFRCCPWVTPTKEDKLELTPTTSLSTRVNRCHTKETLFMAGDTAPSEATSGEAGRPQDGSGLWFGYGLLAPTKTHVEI
The experiment in a line: neurokinin receptor binding assay (NK2).
Source text: as §1, with “711-716. Typical procedures for determining NK1 and NK2 activity are described in U.S. 5,696,267, incorporated herein by reference.” for “711-716.”
as §2
Using the test procedures known in the art, the following data (% inhibition or Ki) were obtained for preferred and/or representative compounds of formula I: […]

Usually Ki stands for a measure of affinity in units of concentration, obtained from inhibition or displacement. A high value points to a looser hold on the target.

Chain of NK1 receptor (P25103 whole entry, species assumed): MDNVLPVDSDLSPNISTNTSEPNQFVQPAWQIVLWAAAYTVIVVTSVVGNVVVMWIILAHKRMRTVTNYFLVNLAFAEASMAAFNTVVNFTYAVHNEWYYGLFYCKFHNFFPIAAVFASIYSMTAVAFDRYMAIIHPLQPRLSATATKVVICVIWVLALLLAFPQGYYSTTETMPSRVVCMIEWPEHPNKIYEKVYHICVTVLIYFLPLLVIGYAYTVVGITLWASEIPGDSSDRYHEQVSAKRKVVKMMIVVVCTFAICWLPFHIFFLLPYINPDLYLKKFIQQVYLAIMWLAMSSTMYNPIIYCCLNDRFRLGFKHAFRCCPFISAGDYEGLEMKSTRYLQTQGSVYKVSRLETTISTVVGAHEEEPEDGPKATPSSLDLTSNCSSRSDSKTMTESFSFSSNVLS

In the case of `CO/N=C(\CN(C)C(=O)c1cc(Cl)cc(Cl)c1)[C@H](CCN1CCC(n2c(=O)[nH]c3ccccc32)CC1)c1ccc(Cl)c(Cl)c1` [Example 18A], the results for the Ki in assay [1] and in assay [2] were 1.2 nM and 1 nM, respectively. For the compound `CO/N=C(\CN(C)C(=O)c1cc(Cl)cc(Cl)c1)[C@H](CCN1CCC(N2CCCN(Cc3nn[nH]n3)C2=O)CC1)c1ccc(Cl)c(Cl)c1` [Example 6S], the Ki in assay [1] was 1 nM; in assay [2], 0.9 nM. Consider `CO/N=C(\CN(C)C(=O)c1cc(Cl)cc(Cl)c1)[C@H](CCN1CCC(N2CCCN(CC(C)(C)O)C2=O)CC1)c1ccc(Cl)c(Cl)c1` [Example 6K], for which the affinity in assay [2] corresponds to a Ki of 0.8 nM.
